Source: patent US20260256792A1, “TREATMENT OF CHRONIC SPONTANEOUS URTICARIA BY ADMINISTERING (R)-2-[3-[4-AMINO-3-(2-FLUORO-4-PHENOXY-PHENYL)PYRAZOLO[3,4-D]PYRIMIDIN-1-YL]PIPERIDINE-1-CARBONYL]-4-METHYL-4-[4-(OXETAN-3-YL)PIPERAZIN-1-YL]PENT-2-ENENITRILE” (priority 2023, published 2026)

System: moderate-to-severe chronic spontaneous urticaria (CSU)
Experiment: Phase 2 CSU study: itch severity score over 7 days (ISS7)
Format: in vivo, human
Conditions: for ISS7 Post-baseline Mean (SD) / ISS7 % Change difference for rilzabrutinib vs. placebo LS Mean (95% CI) / ISS7 % Change from baseline LS Mean (SE) / ISS7 Change difference for rilzabrutinib vs. placebo LS Mean (95% CI) / ISS7 Change from baseline LS Mean (SE): ITT; for Imputed non-responder n (%) (ISS7 reduction of 5 points or more) / Non-responder n (%) (ISS7 reduction of 5 points or more) / OR for rilzabrutinib vs. placebo (ISS7 reduction of 5 points or more) / RRD (%) for rilzabrutinib vs. placebo (ISS7 reduction of 5 points or more) / Responder n (%) (ISS7 reduction of 5 points or more): Omalizumab-Naïve Population, 400 mg BID
From the text: The study comprises a 12 week, randomized, double-blind, placebo-controlled, multi-center, dose-ranging efficacy and safety phase, followed by a 40 week open label extension (OLE) phase (see FIG. 1). The study consists of three phases and an optional OLE phase. […] Clinically, CSU is characterized by the spontaneous and recurrent appearance of pruritic hives. The proposed primary endpoints were the UAS7 at Week 12 in EU and EU reference countries and the ISS7 in the US. Regardless of where a participant was from, all assessments were the same. The UAS7 score is a composite score containing both the HSS7 and the ISS7. This allowed a global assessment of the two key components of urticaria: hives and itch. […] The UAS is a validated PRO measure. […] The daily UAS scores range from 0 to 6 point/day. […] Patients were to complete the UAS using the e-diary. […] The following secondary endpoints were to be analyzed using the same approach as for the primary endpoint: • Change from baseline in UAS7 at Week 4 • Change from baseline in UAS7 at Week 12 (for US and US reference countries) • Change from baseline in ISS7 at Week 12 (except US and US reference countries) • Change from baseline in HSS7 at Week 12

CC(C)(C=C(C#N)C(=O)N1CCC[C@@H](n2nc(-c3ccc(Oc4ccccc4)cc3F)c3c(N)ncnc32)C1)N1CCN(C2COC2)CC1 [rilzabrutinib, (R)-2-[3-[4-amino-3-(2-fluoro-4-phenoxy-phenyl)pyrazolo[3,4-d]pyrimidin-1-yl]piperidine-1-carbonyl]-4-methyl-4-[4-(oxetan-3-yl)piperazin-1-yl]pent-2-enenitrile]
ISS7 Post-baseline Mean (SD) (400 mg QPM, Week 8): 10.61 (5.22)
ISS7 % Change difference for rilzabrutinib vs. placebo LS Mean (95% CI) (400 mg QPM, Week 9): −7.07%
ISS7 % Change from baseline LS Mean (SE) (400 mg QPM, Week 9): −37.93%
ISS7 Change difference for rilzabrutinib vs. placebo LS Mean (95% CI) (400 mg QPM, Week 9): −0.74
ISS7 Change from baseline LS Mean (SE) (400 mg QPM, Week 9): −6.24 (0.96)
ISS7 Post-baseline Mean (SD) (400 mg QPM, Week 9): 10.45 (5.08)
ISS7 % Change difference for rilzabrutinib vs. placebo LS Mean (95% CI) (400 mg QPM, Week 10): −1.26%
ISS7 % Change from baseline LS Mean (SE) (400 mg QPM, Week 10): −39.07 (6.29) %
ISS7 Change difference for rilzabrutinib vs. placebo LS Mean (95% CI) (400 mg QPM, Week 10): −0.17
ISS7 Change from baseline LS Mean (SE) (400 mg QPM, Week 10): −6.47 (1.02)
ISS7 Post-baseline Mean (SD) (400 mg QPM, Week 10): 10.36 (5.24)
ISS7 % Change difference for rilzabrutinib vs. placebo LS Mean (95% CI) (400 mg QPM, Week 11): −3.30%
ISS7 % Change from baseline LS Mean (SE) (400 mg QPM, Week 11): −36.92 (6.23) %
ISS7 Change difference for rilzabrutinib vs. placebo LS Mean (95% CI) (400 mg QPM, Week 11): −0.04
ISS7 Change from baseline LS Mean (SE) (400 mg QPM, Week 11): −5.90 (0.99)
ISS7 Post-baseline Mean (SD) (400 mg QPM, Week 11): 10.97 (5.48)
ISS7 % Change difference for rilzabrutinib vs. placebo LS Mean (95% CI) (400 mg QPM, Week 12): 1.35%
ISS7 % Change from baseline LS Mean (SE) (400 mg QPM, Week 12): −35.23 (6.55) %
ISS7 Change difference for rilzabrutinib vs. placebo LS Mean (95% CI) (400 mg QPM, Week 12): 0.85
ISS7 Change from baseline LS Mean (SE) (400 mg QPM, Week 12): −5.46 (1.03)
ISS7 Post-baseline Mean (SD) (400 mg QPM, Week 12): 11.37 (5.51)
ISS7 % Change difference for rilzabrutinib vs. placebo LS Mean (95% CI) (400 mg TID, Week 1): −29.95%
ISS7 % Change from baseline LS Mean (SE) (400 mg TID, Week 1): −40.41 (5.24) %
ISS7 Change difference for rilzabrutinib vs. placebo LS Mean (95% CI) (400 mg TID, Week 1): −4.65
ISS7 Change from baseline LS Mean (SE) (400 mg TID, Week 1): −6.65 (0.76)
ISS7 Post-baseline Mean (SD) (400 mg TID, Week 1): 9.20 (5.60)
ISS7 % Change difference for rilzabrutinib vs. placebo LS Mean (95% CI) (400 mg TID, Week 2): −29.81%
ISS7 % Change from baseline LS Mean (SE) (400 mg TID, Week 2): −49.29 (5.21) %
ISS7 Change difference for rilzabrutinib vs. placebo LS Mean (95% CI) (400 mg TID, Week 2): −4.51
ISS7 Change from baseline LS Mean (SE) (400 mg TID, Week 2): −7.92 (0.79)
ISS7 Post-baseline Mean (SD) (400 mg TID, Week 2): 7.97 (5.99)
ISS7 % Change difference for rilzabrutinib vs. placebo LS Mean (95% CI) (400 mg TID, Week 3): −27.63%
ISS7 % Change from baseline LS Mean (SE) (400 mg TID, Week 3): −50.07 (5.21) %
ISS7 Change difference for rilzabrutinib vs. placebo LS Mean (95% CI) (400 mg TID, Week 3): −3.76
ISS7 Change from baseline LS Mean (SE) (400 mg TID, Week 3): −7.84 (0.83)
ISS7 Post-baseline Mean (SD) (400 mg TID, Week 3): 7.93 (5.46)
ISS7 % Change difference for rilzabrutinib vs. placebo LS Mean (95% CI) (400 mg TID, Week 4): −23.20%
ISS7 % Change from baseline LS Mean (SE) (400 mg TID, Week 4): −48.97 (5.57) %
ISS7 Change difference for rilzabrutinib vs. placebo LS Mean (95% CI) (400 mg TID, Week 4): −3.13
ISS7 Change from baseline LS Mean (SE) (400 mg TID, Week 4): −7.75 (0.88)
ISS7 Post-baseline Mean (SD) (400 mg TID, Week 4): 7.54 (5.21)
ISS7 % Change difference for rilzabrutinib vs. placebo LS Mean (95% CI) (400 mg TID, Week 5): −21.69%
ISS7 % Change from baseline LS Mean (SE) (400 mg TID, Week 5): −54.96 (5.32) %
ISS7 Change difference for rilzabrutinib vs. placebo LS Mean (95% CI) (400 mg TID, Week 5): −3.36
ISS7 Change from baseline LS Mean (SE) (400 mg TID, Week 5): −8.93 (0.86)
ISS7 Post-baseline Mean (SD) (400 mg TID, Week 5): 6.70 (5.91)
ISS7 % Change difference for rilzabrutinib vs. placebo LS Mean (95% CI) (400 mg TID, Week 6): −26.88%
ISS7 % Change from baseline LS Mean (SE) (400 mg TID, Week 6): −55.31 (5.83) %
ISS7 Change difference for rilzabrutinib vs. placebo LS Mean (95% CI) (400 mg TID, Week 6): −4.09
ISS7 Change from baseline LS Mean (SE) (400 mg TID, Week 6): −8.97 (0.93)
ISS7 Post-baseline Mean (SD) (400 mg TID, Week 6): 6.81 (6.20)
ISS7 % Change difference for rilzabrutinib vs. placebo LS Mean (95% CI) (400 mg TID, Week 7): −24.96%
ISS7 % Change from baseline LS Mean (SE) (400 mg TID, Week 7): −53.83 (5.69) %
ISS7 Change difference for rilzabrutinib vs. placebo LS Mean (95% CI) (400 mg TID, Week 7): −3.71
ISS7 Change from baseline LS Mean (SE) (400 mg TID, Week 7): −8.71 (0.91)
ISS7 Post-baseline Mean (SD) (400 mg TID, Week 7): 7.13 (5.42)
ISS7 % Change difference for rilzabrutinib vs. placebo LS Mean (95% CI) (400 mg TID, Week 8): −21.97%
ISS7 % Change from baseline LS Mean (SE) (400 mg TID, Week 8): −54.76 (5.95) %
ISS7 Change difference for rilzabrutinib vs. placebo LS Mean (95% CI) (400 mg TID, Week 8): −3.05
ISS7 Change from baseline LS Mean (SE) (400 mg TID, Week 8): −8.66 (0.95)
ISS7 Post-baseline Mean (SD) (400 mg TID, Week 8): 6.72 (5.76)
ISS7 % Change difference for rilzabrutinib vs. placebo LS Mean (95% CI) (400 mg TID, Week 9): −24.57%
ISS7 % Change from baseline LS Mean (SE) (400 mg TID, Week 9): −55.43 (6.01) %
ISS7 Change difference for rilzabrutinib vs. placebo LS Mean (95% CI) (400 mg TID, Week 9): −3.35
ISS7 Change from baseline LS Mean (SE) (400 mg TID, Week 9): −8.85 (0.95)
ISS7 Post-baseline Mean (SD) (400 mg TID, Week 9): 6.33 (5.52)
ISS7 % Change difference for rilzabrutinib vs. placebo LS Mean (95% CI) (400 mg TID, Week 10): −18.42%
ISS7 % Change from baseline LS Mean (SE) (400 mg TID, Week 10): −56.23 (6.14) %
ISS7 Change difference for rilzabrutinib vs. placebo LS Mean (95% CI) (400 mg TID, Week 10): −2.68
ISS7 Change from baseline LS Mean (SE) (400 mg TID, Week 10): −8.98 (0.99)
ISS7 Post-baseline Mean (SD) (400 mg TID, Week 10): 6.43 (5.48)
ISS7 % Change difference for rilzabrutinib vs. placebo LS Mean (95% CI) (400 mg TID, Week 11): −22.13%
ISS7 % Change from baseline LS Mean (SE) (400 mg TID, Week 11): −55.75 (6.15) %
ISS7 Change difference for rilzabrutinib vs. placebo LS Mean (95% CI) (400 mg TID, Week 11): −3.15
ISS7 Change from baseline LS Mean (SE) (400 mg TID, Week 11): −9.02 (0.96)
ISS7 Post-baseline Mean (SD) (400 mg TID, Week 11): 6.57 (5.76)
ISS7 % Change difference for rilzabrutinib vs. placebo LS Mean (95% CI) (400 mg TID, Week 12): −23.23%
ISS7 % Change from baseline LS Mean (SE) (400 mg TID, Week 12): −59.81 (6.28) %
ISS7 Change difference for rilzabrutinib vs. placebo LS Mean (95% CI) (400 mg TID, Week 12): −3.26
ISS7 Change from baseline LS Mean (SE) (400 mg TID, Week 12): −9.58 (1.01)
ISS7 Post-baseline Mean (SD) (400 mg TID, Week 12): 5.59 (5.58)
Imputed non-responder n (%) (ISS7 reduction of 5 points or more) (Week 1): 0 n (%)
Non-responder n (%) (ISS7 reduction of 5 points or more) (Week 1): 18 (51.4) n (%)
OR for rilzabrutinib vs. placebo (ISS7 reduction of 5 points or more) (Week 1): 3.240
RRD (%) for rilzabrutinib vs. placebo (ISS7 reduction of 5 points or more) (Week 1): 25.3%
Responder n (%) (ISS7 reduction of 5 points or more) (Week 1): 17 (48.6) n (%)
Imputed non-responder n (%) (ISS7 reduction of 5 points or more) (Week 2): 1 (2.9) n (%)
Non-responder n (%) (ISS7 reduction of 5 points or more) (Week 2): 17 (48.6) n (%)
OR for rilzabrutinib vs. placebo (ISS7 reduction of 5 points or more) (Week 2): 2.836
RRD (%) for rilzabrutinib vs. placebo (ISS7 reduction of 5 points or more) (Week 2): 24.1%
Responder n (%) (ISS7 reduction of 5 points or more) (Week 2): 18 (51.4) n (%)
